Experimental data taken from ChEMBL document CHEMBL1921763, “Synthesis and SAR of 2-phenoxypyridines as novel c-Jun N-terminal kinase inhibitors” (Bioorg Med Chem Lett, 2011).
pIC50: −log10 of the molar value.

What was measured:
[1] = target: Mitogen-activated protein kinase 8 (Homo sapiens, UniProt P45983); experiment: Inhibition of JNK1 using biotinylated-ATF2 as substrate by HTRF assay
[2] = target: Mitogen-activated protein kinase 10 (Homo sapiens, UniProt P53779); experiment: Inhibition of JNK3 using biotinylated-ATF2 as substrate by HTRF assay
Sequence of Mitogen-activated protein kinase 10 (P53779 whole entry): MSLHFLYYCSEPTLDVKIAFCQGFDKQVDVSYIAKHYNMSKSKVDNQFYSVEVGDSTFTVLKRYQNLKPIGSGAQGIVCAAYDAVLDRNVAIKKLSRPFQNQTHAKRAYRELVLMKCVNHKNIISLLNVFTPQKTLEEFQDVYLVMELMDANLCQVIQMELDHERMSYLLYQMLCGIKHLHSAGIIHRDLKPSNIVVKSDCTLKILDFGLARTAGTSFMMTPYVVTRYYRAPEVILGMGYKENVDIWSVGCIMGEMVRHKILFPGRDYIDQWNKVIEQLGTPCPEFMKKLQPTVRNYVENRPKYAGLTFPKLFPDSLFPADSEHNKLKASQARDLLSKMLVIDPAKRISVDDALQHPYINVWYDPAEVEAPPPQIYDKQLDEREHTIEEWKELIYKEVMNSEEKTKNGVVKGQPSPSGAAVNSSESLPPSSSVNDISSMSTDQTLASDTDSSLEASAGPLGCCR

[3] = Half life in Sprague-Dawley rat at 1 mg/kg, iv and 2 mg/kg, po; type: ADME, organism-based; conditions: in vivo
[4] = Plasma clearance in Sprague-Dawley rat at 1 mg/kg, iv and 2 mg/kg, po; type: ADME, organism-based
[5] = AUC in Sprague-Dawley rat at 1 mg/kg, iv and 2 mg/kg, po; type: ADME, organism-based; conditions: plasma
[6] = Oral bioavailability in Sprague-Dawley rat at 2 mg/kg; type: ADME, organism-based; conditions: in vivo
[7] = Plasma concentration in C57B16 mouse at 10 mg/kg, ip after 2 hrs; type: ADME, organism-based; set-up: dose 10 mg/kg, route intraperitoneal
[8] = Drug level in C57B16 mouse brain at 10 mg/kg, ip after 2 hrs; type: ADME, organism-based; set-up: dose 10 mg/kg, route intraperitoneal; conditions: read-out: Drug uptake

Sequence of Mitogen-activated protein kinase 8 (P45983 whole entry): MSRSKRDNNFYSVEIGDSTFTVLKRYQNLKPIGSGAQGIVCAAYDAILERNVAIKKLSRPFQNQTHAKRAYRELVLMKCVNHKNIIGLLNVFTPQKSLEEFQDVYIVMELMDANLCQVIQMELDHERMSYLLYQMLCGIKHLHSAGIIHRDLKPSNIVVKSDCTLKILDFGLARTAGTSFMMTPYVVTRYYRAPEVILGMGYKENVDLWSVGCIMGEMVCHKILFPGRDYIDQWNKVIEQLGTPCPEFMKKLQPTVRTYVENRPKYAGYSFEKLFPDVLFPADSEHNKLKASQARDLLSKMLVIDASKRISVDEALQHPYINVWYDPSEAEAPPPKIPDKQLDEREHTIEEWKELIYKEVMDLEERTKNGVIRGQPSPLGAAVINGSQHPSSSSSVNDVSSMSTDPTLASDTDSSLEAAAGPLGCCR

Row | SMILES | pIC50 [1] | pIC50 [2] | also measured
1 | NC(=O)c1ccccc1Nc1ccnc(Oc2ccccc2)c1 | 6.48 | 6.28 | –
2 | COc1ccc(Oc2cc(Nc3c(Cl)cccc3C(N)=O)c(C(F)(F)F)cn2)cc1 | – | 6.80 | –
3 | COc1ccccc1Oc1cc(Nc2ccccc2C(N)=O)c(C(F)(F)F)cn1 | 5.49 | 5.46 | –
4 | CCCOc1ccc(Oc2cc(Nc3ccccc3C(N)=O)c(C(F)(F)F)cn2)cc1 | 7.00 | 6.85 | –
5 | NC(=O)c1ccccc1Nc1cc(Oc2cccc3ccccc23)ncc1C(F)(F)F | 6.19 | 6.00 | –
6 | COc1ccc(Oc2cc(Nc3cccc(Cl)c3C(N)=O)c(C(F)(F)F)cn2)cc1 | – | 5.66 | –
7 | NC(=O)c1ccccc1Nc1cc(Oc2ccc(Br)cc2)ncc1C(F)(F)F | 6.32 | 6.42 | –
8 | NC(=O)c1ccccc1Nc1cc(Oc2cccc(Cl)c2)ncc1C(F)(F)F | – | 6.70 | –
9 | COc1ccc(Oc2cc(N(C)c3ccccc3C(N)=O)c(Cl)cn2)cc1 | < 4.70 | – | –
10 | NC(=O)c1ccccc1Nc1cc(Oc2ccc(F)cc2)ncc1C(F)(F)F | 7.00 | 6.70 | –
11 | COc1ccc(Oc2cc(Nc3ccccc3-c3nnc[nH]3)c(Cl)cn2)cc1 | 6.92 | 6.85 | –
12 | COc1ccc(Oc2cc(Nc3cccc(OC)c3C(N)=O)c(C(F)(F)F)cn2)cc1 | – | 5.66 | –
13 | CNC(=O)c1ccccc1Nc1cc(Oc2ccc(OC)cc2)ncc1Cl | 6.03 | 6.77 | –
14 | NC(=O)c1ccccc1Nc1cc(Oc2ccc3ccccc3c2)ncc1C(F)(F)F | – | 6.49 | –

Second part, led by results:

Row | pIC50 [1] | pIC50 [2] | SMILES | also measured
15 | 6.51 | 7.15 | NC(=O)c1ccccc1Nc1ccnc(Oc2ccc(N3CCNCC3)cc2)c1 | half-life [3]: 1.5 h; clearance [4]: 38 mL/min/kg; AUC [5]: 0.3 µM·h; bioavailability [6]: 14%
16 | 7.28 | 7.14 | NC(=O)c1ccccc1Nc1cc(Oc2ccc(-c3cccnc3)cc2)ncc1C(F)(F)F | –
17 | – | 7.47 | NC(=O)c1ccccc1Nc1cc(Oc2ccc(N3CCNCC3)cc2)ncc1C(F)(F)F | –
18 | 7.66 | 7.57 | CC(C)(C)Oc1ccc(Oc2cc(Nc3ccccc3C(N)=O)c(C(F)(F)F)cn2)cc1 | –
19 | – | 7.22 | COc1ccc(Oc2cc(Nc3c(F)cccc3C(N)=O)c(C(F)(F)F)cn2)cc1 | –
20 | 8.10 | 7.82 | COc1ccc(Oc2cc(Nc3ccccc3C(N)=O)c(Cl)cn2)cc1 | half-life [3]: 1 h; clearance [4]: 13 mL/min/kg; AUC [5]: 6.3 µM·h; bioavailability [6]: 90%; concentration at 2 h [7]: 2.4 µM; concentration at 2 h [8]: 1.8 µM
21 | – | 7.10 | NC(=O)c1ccccc1Nc1cc(Oc2ccc(-n3cncn3)cc2)ncc1C(F)(F)F | half-life [3]: 1 h; clearance [4]: 6 mL/min/kg; AUC [5]: 9.1 µM·h; bioavailability [6]: 73%; concentration at 2 h [7]: 15.7 µM; concentration at 2 h [8]: 2.5 µM
22 | 7.46 | 7.46 | NC(=O)c1ccccc1Nc1cc(Oc2ccc(OC(F)(F)F)cc2)ncc1C(F)(F)F | –
23 | 7.42 | 7.15 | COc1cccc(Oc2cc(Nc3ccccc3C(N)=O)c(C(F)(F)F)cn2)c1 | –
24 | – | 7.11 | COc1ccc(Oc2cc(Nc3cc(Cl)ccc3C(N)=O)c(C(F)(F)F)cn2)cc1 | –
25 | 7.36 | 7.32 | NC(=O)c1ccccc1Nc1cc(Oc2ccc3c(c2)OCO3)ncc1C(F)(F)F | –
26 | 8.40 | 8.15 | COc1ccc(Oc2ncc(Cl)c(Nc3ccccc3C(N)=O)n2)cc1 | half-life [3]: 0.5 h; clearance [4]: 22 mL/min/kg; AUC [5]: 1 µM·h; bioavailability [6]: 25%
27 | 6.17 | 7.00 | NC(=O)c1ccccc1Nc1cc(Oc2ccc(Cl)c(Cl)c2)ncc1C(F)(F)F | –
28 | 7.46 | 6.96 | CCOc1ccc(Oc2cc(Nc3ccccc3C(N)=O)c(C(F)(F)F)cn2)cc1 | –
29 | – | 7.31 | COc1ccc(Oc2cc(Nc3cc(F)ccc3C(N)=O)c(C(F)(F)F)cn2)cc1 | –
30 | – | 7.52 | COc1ccc(Oc2cc(Nc3ccc(Cl)cc3C(N)=O)c(C(F)(F)F)cn2)cc1 | –
31 | 7.59 | 7.32 | COc1ccc(Oc2cc(Nc3ccccc3C(N)=O)c(F)cn2)cc1 | –
32 | – | 7.35 | COc1ccc(Oc2cc(Nc3ccc(F)cc3C(N)=O)c(C(F)(F)F)cn2)cc1 | –
33 | – | 7.77 | COc1ccc(Oc2cc(Nc3cc(OC)ccc3C(N)=O)c(C(F)(F)F)cn2)cc1 | –
34 | 6.13 | 7.00 | COc1ccc(Oc2cc(Nc3ccccc3C(N)=O)c(C(F)(F)F)cn2)c(Cl)c1 | –
35 | 7.57 | 7.43 | COc1ccc(Oc2cc(Nc3ccccc3C(N)=O)c(C(F)(F)F)cn2)cc1 | half-life [3]: 1 h; clearance [4]: 3 mL/min/kg; AUC [5]: 20.1 µM·h; bioavailability [6]: 79%; concentration at 2 h [7]: 10 µM; concentration at 2 h [8]: 5.2 µM
